Assay results as given in patent EP2439197A1, “Substituted benzimidazole derivatives as melanocortin 4 receptor antagonists” (Santhera Pharmaceuticals (Schweiz) AG, priority 2010, dated 2012).
Where two headings read alike, the source gives them in different places.

Assays:
hMC-4R [1] = molecular target: T1, hMC-4R (Homo sapiens, UniProt P32245); experiment: membrane binding assay, competition with fluorescence labeled NDP-alpha-MSH (fluorescence polarization)
T1 construct: expressed in transfected cells; host or cells: HEK293 cells (membrane preparations)
T1 sequence (P32245 whole entry): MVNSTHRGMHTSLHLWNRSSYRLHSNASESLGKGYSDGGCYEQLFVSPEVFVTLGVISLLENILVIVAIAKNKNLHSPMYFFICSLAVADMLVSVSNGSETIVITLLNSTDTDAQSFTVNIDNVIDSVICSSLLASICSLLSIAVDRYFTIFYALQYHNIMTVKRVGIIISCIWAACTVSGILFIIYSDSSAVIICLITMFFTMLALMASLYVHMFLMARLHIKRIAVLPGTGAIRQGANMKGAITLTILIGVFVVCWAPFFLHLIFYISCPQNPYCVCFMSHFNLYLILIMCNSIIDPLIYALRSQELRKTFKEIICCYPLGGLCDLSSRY
Procedure: A membrane binding assay is used to identify competitive inhibitors of fluorescence labeled NDP-alpha-MSH binding to HEK293 cell membrane preparations expressing human melanocortin receptors.
The test compound or unlabeled NDP-alpha-MSH is dispensed at varying concentrations to a 384 well microtiter plate. Fluorescence labeled NDP-alpha-MSH is dispensed at a single concentration, followed by addition of membrane preparations. The plate is incubated for 5 h at room temperature.
The degree of fluorescence polarization is determined with a fluorescence polarization microplate reader.

hMC-4R [2] = molecular target: T1, hMC-4R; experiment: functional assay, homogeneous membrane based cAMP fluorescence polarization assay; format: biochemical; conditions: for Emax: read-out: % activation functional assay
[3] = HEK293 cell membrane preparations expressing human melanocortin receptors, read-out: hMC-4R binding assay IC50/µM

SMILES | IC50 (hMC-4R [1]) [µM] | Emax (hMC-4R [2]) [%] | IC50 (hMC-4R [1]; [3]) [µM] | EC50 (hMC-4R [2]; membrane preparations from HEK293 cells, cAMP production, read-out: hMC-4R functional assay EC50/µM) [µM] | EC50 (hMC-4R [2]) [µM]
CC(C)CCN(CCC(C)C)C(=O)c1ccc2nc(-c3ccc(=O)[nH]c3)n(CC(O)CN3CCCC3)c2c1 (stereo not shown) [Example 1] | < 1 | -15 |  |  | 
CC(C)CCN(CCC(C)C)C(=O)c1ccc2nc(-c3ccc(=O)[nH]c3)n(CC(F)CN3CCCC3)c2c1 (stereo not shown) [Example 2] | < 0.1 | -11 |  |  | 
COc1ccc(-c2nc3ccc(C(=O)N(CCC(C)C)CCC(C)C)cc3n2CC(O)CN2CCCC2)cn1 (stereo not shown) [Example 3] |  | -25 | < 0.1 | 0.1 to 1 | 
CC(C)CCN(CCC(C)C)C(=O)c1ccc2nc(-c3ncco3)n(CC(O)CN3CCCC3)c2c1 (stereo not shown) [Example 4] | < 0.1 | -28 |  |  | < 0.1
COc1cc(C2(c3nc4ccc(C(=O)N(CCC(C)C)CCC(C)C)cc4n3CCCN3CCCC3)CC2)ccn1 [Example 5] | < 1 | -6 |  |  | 
COc1ccc(C2(c3nc4ccc(C(=O)N(CCC(C)C)CCC(C)C)cc4n3CCCN3CCCC3)CC2)cn1 [Example 6] | < 1 | -11 |  |  | 
CC(C)CCN(CCC(C)C)C(=O)c1ccc2nc(N3CCN(C)CC3)n(CCCN3CCCC3)c2c1 [Example 7] | 1 to 10 | -4 |  |  | 
CC(C)CCN(CCC(C)C)C(=O)c1ccc2nc(CN3CCN(C)CC3)n(CCCN3CCCC3)c2c1 [Example 8] |  | -6 | < 0.1 |  | 
CC(C)CCN(CCC(C)C)C(=O)c1ccc2nc(CN3CCN(CCO)CC3)n(CCCN3CCCC3)c2c1 [Example 9] | < 0.1 | -9 |  |  | 
CC(C)CCN(CCC(C)C)C(=O)c1ccc2nc(CN3CCN(C(C)C)CC3)n(CCCN3CCCC3)c2c1 [Example 10] | < 1 | 0 |  |  | 
CC(C)CCN(CCC(C)C)C(=O)c1ccc2nc(C3CCN(C(=O)OC(C)(C)C)CC3)n(CCCN3CCCC3)c2c1 [Example 11] | < 0.1 | -33 |  |  | < 0.1
CC(C)CCN(CCC(C)C)C(=O)c1ccc2nc(C3CCN(C(=O)OC(C)(C)C)CC3)n(CCCN3CCCC3C)c2c1 (stereo not shown) [Example 12] | < 0.1 | -40 |  |  | < 0.1
CC(C)CCN(CCC(C)C)C(=O)c1ccc2nc(CC3CCN(C(=O)OC(C)(C)C)CC3)n(CCCN3CCCC3)c2c1 [Example 13] | < 0.1 | -7 |  |  | 
CC(C)CCN(CCC(C)C)C(=O)c1ccc2nc(CC3CCN(CCO)CC3)n(CCCN3CCCC3)c2c1 [Example 14] | < 0.1 | -18 |  |  | 
CC(C)CCN(CCC(C)C)C(=O)c1ccc2nc(CC3CCN(C4COC4)CC3)n(CCCN3CCCC3)c2c1 [Example 15] | < 0.1 | -11 |  |  | 
CC(C)CCN(CCC(C)C)C(=O)c1ccc2nc(C3CN(C(=O)OC(C)(C)C)C3)n(CCCN3CCCC3)c2c1 [Example 16] |  | -9 | < 0.1 |  | 
CC(C)CCN(CCC(C)C)C(=O)c1ccc2nc([C@H]3CC[C@H](N(C)C)CC3)n(CCCN3CCCC3)c2c1 [Example 17] | < 0.1 | -6 |  |  | 
CC(C)CCN(CCC(C)C)C(=O)c1ccc2nc([C@H]3CC[C@@H](N(C)C)CC3)n(CCCN3CCCC3)c2c1 [Example 18] | < 0.1 | -19 |  |  | 
CCCCN(CCCC)C(=O)c1ccc2nc(CC3CCN(C(=O)OC(C)(C)C)CC3)n(CCCN3CCCC3)c2c1 [Example 19] | < 0.1 | -33 |  |  | < 0.1
CCCCN(CCCC)C(=O)c1ccc2nc(CC3CCN(C4COC4)CC3)n(CCCN3CCCC3)c2c1 [Example 20] | < 1 | 0 |  |  | 

SMILES | IC50 (hMC-4R [1]) [µM] | Emax (hMC-4R [2]) [%] | IC50 (hMC-4R [1]; [3]) [µM] | EC50 (hMC-4R [2]; membrane preparations from HEK293 cells, cAMP production, read-out: hMC-4R functional assay EC50/µM) [µM] | EC50 (hMC-4R [2]) [µM]
CC(C)CCN(CCC(C)C)C(=O)c1ccc2nc(-c3ccc(=O)[nH]c3)n(CCCN3CCCC3)c2c1 [Example 21] | < 0.1 | -14 |  |  | 
CC(C)CCN(CCC(C)C)C(=O)c1ccc2nc(-c3ccc(=O)[nH]c3)n(CCCN3CCCCC3)c2c1 [Example 22] |  | -12 | < 0.1 |  | 
CC(C)CCN(CCC(C)C)C(=O)c1ccc2nc(C3CCNCC3)n(CCCN3CCCC3)c2c1 [Example 23] | < 0.1 | -39 |  |  | < 0.1
CC(C)CCN(CCC(C)C)C(=O)c1ccc2nc(C3CCN(C)CC3)n(CCCN3CCCC3)c2c1 [Example 24] | < 0.1 | -44 |  |  | < 0.1
CC(C)CCN(CCC(C)C)C(=O)c1ccc2nc(-c3ccc(=O)[nH]c3)n(CCCN3CCCC3C)c2c1 (stereo not shown) [Example 25] | < 0.1 | -37 |  |  | < 0.1
CC(C)CCN(CCC(C)C)C(=O)c1ccc2nc(C3CCNCC3)n(CCCN3CCCC3C)c2c1 (stereo not shown) [Example 26] | < 0.1 | -12 |  |  | 
CC(C)CCN(CCC(C)C)C(=O)c1ccc2nc(C3CCN(C)CC3)n(CCCN3CCCC3C)c2c1 (stereo not shown) [Example 27] |  | -2 | < 0.1 |  | 
CC(C)CCN(CCC(C)C)C(=O)c1ccc2nc(CC3CCNCC3)n(CCCN3CCCC3)c2c1 [Example 28] |  | -6 | < 0.1 |  | 
CC(C)CCN(CCC(C)C)C(=O)c1ccc2nc(CC3CCN(C)CC3)n(CCCN3CCCC3)c2c1 [Example 29] | < 0.1 | -10 |  |  | 
CC(C)CCN(CCC(C)C)C(=O)c1ccc2nc(-c3cnc(O)nc3)n(CCCN3CCCC3)c2c1 [Example 30] | < 1 | -12 |  |  | 
CC(C)CCN(CCC(C)C)C(=O)c1ccc2nc(C3CNC3)n(CCCN3CCCC3)c2c1 [Example 31] | < 0.1 | -32 |  |  | 0.1 to 1
CC(C)CCN(CCC(C)C)C(=O)c1ccc2nc(C3CN(C)C3)n(CCCN3CCCC3)c2c1 [Example 32] | < 0.1 | -18 |  |  | < 0.1
COc1cc(Cc2nc3ccc(C(=O)N(CCC(C)C)CCC(C)C)cc3n2CCCN2CCCC2)ccn1 [Example 33] | < 0.1 | 0 |  |  | 
CC(C)CCN(CCC(C)C)C(=O)c1ccc2nc(C3CNC(=O)C3)n(CCCN3CCCC3)c2c1 (stereo not shown) [Example 34] | < 0.1 | -10 |  |  | 
CC(C)CCN(CCC(C)C)C(=O)c1ccc2nc(C3CCC(=O)NC3)n(CCCN3CCCC3)c2c1 (stereo not shown) [Example 35] | < 1 | -11 |  |  | 
CC(C)CCN(CCC(C)C)C(=O)c1ccc2nc(C3CCN(C)C(=O)C3)n(CCCN3CCCC3)c2c1 (stereo not shown) [Example 36] | < 1 | -5 |  |  | 
CC(C)CCN(CCC(C)C)C(=O)c1ccc2nc(C3CCC(=O)N(C)C3)n(CCCN3CCCC3)c2c1 (stereo not shown) [Example 37] | < 1 | -2 |  |  | 
CCCCN(CCCC)C(=O)c1ccc2nc(CC3CCNCC3)n(CCCN3CCCC3)c2c1 [Example 38] | < 0.1 | -5 |  |  | 
CCCCN(CCCC)C(=O)c1ccc2nc(CC3CCN(C)CC3)n(CCCN3CCCC3)c2c1 [Example 39] | < 0.1 | -8 |  |  | 
